ChEMBL document CHEMBL3046208, “Natural and synthetic podolactones with potential use as natural herbicide models” (2000)
Activity calls are given as the source filed them. The calls are words filed in the database; no cut-off is given here.

How the values were obtained:
[1] = test system: Solanum lycopersicum; experiment: Inhibition of root length of Solanum lycopersicum (tomato) at 1 uM after 5 days relative to untreated control; assay type: functional; settings: 120 h
[2] = test system: Lepidium sativum; experiment: Inhibition of root length of Lepidium sativum at 10 uM after 5 days relative to untreated control; assay type: functional, organism-based
[3] = test system: Allium cepa; experiment: Stimulation of germination of Allium cepa (onion) at 0.1 mM after 5 days relative to untreated control; assay type: functional
[4] = test system: Triticum aestivum; experiment: Inhibition of root length of Triticum aestivum (wheat) at 0.1 mM after 5 days relative to untreated control; assay type: functional; settings: 120 h
[5] = test system: Hordeum vulgare; experiment: Inhibition of shoot length of Hordeum vulgare (barley) at 0.1 mM after 5 days relative to untreated control; assay type: functional; settings: 120 h
[6] = test system: Lepidium sativum; experiment: Inhibition of shoot length of Lepidium sativum at 0.1 mM after 5 days relative to untreated control; assay type: functional; settings: 120 h
[7] = test system: Lepidium sativum; experiment: Inhibition of root length of Lepidium sativum at 0.1 mM after 5 days relative to untreated control; assay type: functional; settings: 120 h
[8] = test system: Lactuca sativa; experiment: Inhibition of shoot length of Lactuca sativa cv. Roman (lettuce) at 0.1 mM after 5 days relative to untreated control; assay type: functional; settings: 120 h
[9] = test system: Allium cepa; experiment: Inhibition of root length of Allium cepa (onion) at 10 uM after 5 days relative to untreated control; assay type: functional; settings: 120 h
[10] = test system: Lactuca sativa; experiment: Stimulation of germination of Lactuca sativa cv. Roman (lettuce) at 0.1 mM after 5 days relative to untreated control; assay type: functional
[11] = test system: Triticum aestivum; experiment: Stimulation of shoot length of Triticum aestivum (wheat) at 0.1 mM after 5 days relative to untreated control; assay type: functional
[12] = test system: Solanum lycopersicum; experiment: Inhibition of root length of Solanum lycopersicum (tomato) at 10 uM after 5 days relative to untreated control; assay type: functional, organism-based
[13] = test system: Lepidium sativum; experiment: Stimulation of root length of Lepidium sativum at 1 uM after 5 days relative to untreated control; assay type: functional
[14] = test system: Lepidium sativum; experiment: Stimulation of shoot length of Lepidium sativum at 1 uM after 5 days relative to untreated control; assay type: functional
[15] = test system: Hordeum vulgare; experiment: Inhibition of root length of Hordeum vulgare (barley) at 0.1 mM after 5 days relative to untreated control; assay type: functional; settings: 120 h
[16] = test system: Lactuca sativa; experiment: Inhibition of shoot length of Lactuca sativa cv. Nigra (lettuce) at 0.1 mM after 5 days relative to untreated control; assay type: functional; settings: 120 h
[17] = test system: Lactuca sativa; experiment: Inhibition of root length of Lactuca sativa cv. Roman (lettuce) at 0.1 mM after 5 days relative to untreated control; assay type: functional; settings: 120 h
[18] = test system: Triticum aestivum; experiment: Stimulation of germination of Triticum aestivum (wheat) at 0.1 mM after 5 days relative to untreated control; assay type: functional
[19] = test system: Solanum lycopersicum; experiment: Stimulation of root length of Solanum lycopersicum (tomato) at 0.1 mM after 5 days relative to untreated control; assay type: functional
[20] = test system: Lactuca sativa; experiment: Stimulation of root length of Lactuca sativa cv. Nigra (lettuce) at 0.1 mM after 5 days relative to untreated control; assay type: functional
[21] = test system: Lepidium sativum; experiment: Inhibition of germination of Lepidium sativum at 10 uM after 5 days relative to untreated control; assay type: functional, organism-based
[22] = test system: Allium cepa; experiment: Inhibition of shoot length of Allium cepa (onion) at 10 uM after 5 days relative to untreated control; assay type: functional; settings: 120 h
[23] = test system: Lepidium sativum; experiment: Stimulation of shoot length of Lepidium sativum at 0.1 mM after 5 days relative to untreated control; assay type: functional
[24] = test system: Hordeum vulgare; experiment: Stimulation of germination of Hordeum vulgare (barley) at 0.1 mM after 5 days relative to untreated control; assay type: functional
[25] = test system: Lactuca sativa; experiment: Stimulation of shoot length of Lactuca sativa cv. Roman (lettuce) at 0.1 mM after 5 days relative to untreated control; assay type: functional
[26] = test system: Solanum lycopersicum; experiment: Inhibition of root length of Solanum lycopersicum (tomato) at 0.1 mM after 5 days relative to untreated control; assay type: functional; settings: 120 h
[27] = test system: Solanum lycopersicum; experiment: Stimulation of shoot length of Solanum lycopersicum (tomato) at 0.1 mM after 5 days relative to untreated control; assay type: functional
[28] = test system: Lactuca sativa; experiment: Stimulation of root length of Lactuca sativa cv. Roman (lettuce) at 0.1 mM after 5 days relative to untreated control; assay type: functional
[29] = test system: Lepidium sativum; experiment: Stimulation of root length of Lepidium sativum at 0.1 mM after 5 days relative to untreated control; assay type: functional
[30] = test system: Lactuca sativa; experiment: Stimulation of shoot length of Lactuca sativa cv. Nigra (lettuce) at 0.1 mM after 5 days relative to untreated control; assay type: functional
[31] = test system: Triticum aestivum; experiment: Inhibition of shoot length of Triticum aestivum (wheat) at 10 uM after 5 days relative to untreated control; assay type: functional, organism-based
[32] = test system: Hordeum vulgare; experiment: Inhibition of root length of Hordeum vulgare (barley) at 10 uM after 5 days relative to untreated control; assay type: functional, organism-based
[33] = test system: Hordeum vulgare; experiment: Stimulation of root length of Hordeum vulgare (barley) at 0.1 mM after 5 days relative to untreated control; assay type: functional
[34] = test system: Solanum lycopersicum; experiment: Inhibition of germination of Solanum lycopersicum (tomato) at 10 uM after 5 days relative to untreated control; assay type: functional, organism-based
[35] = test system: Hordeum vulgare; experiment: Inhibition of shoot length of Hordeum vulgare (barley) at 10 uM after 5 days relative to untreated control; assay type: functional, organism-based
[36] = test system: Lepidium sativum; experiment: Inhibition of shoot length of Lepidium sativum at 10 uM after 5 days relative to untreated control; assay type: functional, organism-based
[37] = test system: Solanum lycopersicum; experiment: Inhibition of shoot length of Solanum lycopersicum (tomato) at 0.1 mM after 5 days relative to untreated control; assay type: functional; settings: 120 h
[38] = test system: Solanum lycopersicum; experiment: Inhibition of shoot length of Solanum lycopersicum (tomato) at 10 uM after 5 days relative to untreated control; assay type: functional, organism-based
[39] = test system: Solanum lycopersicum; experiment: Inhibition of shoot length of Solanum lycopersicum (tomato) at 1 uM after 5 days relative to untreated control; assay type: functional; settings: 120 h
[40] = test system: Allium cepa; experiment: Inhibition of root length of Allium cepa (onion) at 0.1 mM after 5 days relative to untreated control; assay type: functional; settings: 120 h
[41] = test system: Triticum aestivum; experiment: Inhibition of root length of Triticum aestivum (wheat) at 10 uM after 5 days relative to untreated control; assay type: functional; settings: 120 h
[42] = test system: Triticum aestivum; experiment: Stimulation of root length of Triticum aestivum (wheat) at 0.1 mM after 5 days relative to untreated control; assay type: functional
[43] = test system: Lactuca sativa; experiment: Stimulation of germination of Lactuca sativa cv. Nigra (lettuce) at 0.1 mM after 5 days relative to untreated control; assay type: functional
[44] = test system: Lepidium sativum; experiment: Inhibition of germination of Lepidium sativum at 0.1 mM after 5 days relative to untreated control; assay type: functional; settings: 120 h
[45] = test system: Lactuca sativa; experiment: Inhibition of germination of Lactuca sativa cv. Roman (lettuce) at 0.1 mM after 5 days relative to untreated control; assay type: functional; settings: 120 h
[46] = test system: Allium cepa; experiment: Stimulation of root length of Allium cepa (onion) at 0.1 mM after 5 days relative to untreated control; assay type: functional
[47] = test system: Hordeum vulgare; experiment: Inhibition of germination of Hordeum vulgare (barley) at 0.1 mM after 5 days relative to untreated control; assay type: functional; settings: 120 h
[48] = test system: Hordeum vulgare; experiment: Stimulation of shoot length of Hordeum vulgare (barley) at 0.1 mM after 5 days relative to untreated control; assay type: functional
[49] = test system: Allium cepa; experiment: Inhibition of germination of Allium cepa (onion) at 0.1 mM after 5 days relative to untreated control; assay type: functional; settings: 120 h
[50] = test system: Allium cepa; experiment: Stimulation of shoot length of Allium cepa (onion) at 0.1 mM after 5 days relative to untreated control; assay type: functional
[51] = test system: Allium cepa; experiment: Inhibition of shoot length of Allium cepa (onion) at 0.1 mM after 5 days relative to untreated control; assay type: functional; settings: 120 h
[52] = test system: Lepidium sativum; experiment: Stimulation of germination of Lepidium sativum at 0.1 mM after 5 days relative to untreated control; assay type: functional
[53] = test system: Triticum aestivum; experiment: Inhibition of germination of Triticum aestivum (wheat) at 0.1 mM after 5 days relative to untreated control; assay type: functional; settings: 120 h
[54] = test system: Lactuca sativa; experiment: Inhibition of germination of Lactuca sativa cv. Nigra (lettuce) at 0.1 mM after 5 days relative to untreated control; assay type: functional; settings: 120 h
[55] = test system: Solanum lycopersicum; experiment: Inhibition of germination of Solanum lycopersicum (tomato) at 0.1 mM after 5 days relative to untreated control; assay type: functional; settings: 120 h
[56] = test system: Solanum lycopersicum; experiment: Stimulation of germination of Solanum lycopersicum (tomato) at 0.1 mM after 5 days relative to untreated control; assay type: functional
[57] = test system: Triticum aestivum; experiment: Inhibition of shoot length of Triticum aestivum (wheat) at 0.1 mM after 5 days relative to untreated control; assay type: functional; settings: 120 h
[58] = test system: Lactuca sativa; experiment: Inhibition of root length of Lactuca sativa cv. Nigra (lettuce) at 0.1 mM after 5 days relative to untreated control; assay type: functional; settings: 120 h

CO[C@@H]1OC(=O)C=C2C1=C[C@H]1OC(=O)[C@@]3(C)CCC[C@@]2(C)[C@@H]13
inhibition at 1 µM [1]: -45% | inhibition [2]: Active | Activity [3]: >40% | inhibition at 100 µM [4]: > 40% | inhibition at 100 µM [5]: > 40% | inhibition at 100 µM [6]: > 40% | inhibition at 100 µM [7]: > 40% | inhibition at 100 µM [8]: > 40% | inhibition at 10 µM [9]: -54% | Activity [10]: >40% | Activity [11]: >40% | inhibition [12]: Active | Activity [13]: -44% | Activity [14]: -73% | inhibition at 100 µM [15]: > 40% | inhibition at 100 µM [16]: > 40% | inhibition at 100 µM [17]: > 40% | Activity [18]: >40% | Activity [19]: >40% | Activity [20]: >40% | inhibition [21]: Active | inhibition at 10 µM [22]: -74% | Activity [23]: >40% | Activity [24]: >40% | Activity [25]: >40% | inhibition at 100 µM [26]: > 40% | Activity [27]: >40% | Activity [28]: >40% | Activity [29]: >40% | Activity [30]: >40% | inhibition [31]: inactive | inhibition [32]: inactive | Activity [33]: >40% | inhibition [34]: Active | inhibition [35]: inactive | inhibition [36]: Active | inhibition at 100 µM [37]: > 40% | inhibition [38]: Active | inhibition at 1 µM [39]: -44% | inhibition at 100 µM [40]: > 40% | inhibition at 10 µM [41]: -42% | Activity [42]: >40% | Activity [43]: 20% | inhibition at 100 µM [44]: > 40% | inhibition at 100 µM [45]: > 40% | Activity [46]: >40% | inhibition at 100 µM [47]: > 40% | Activity [48]: >40% | inhibition at 100 µM [49]: > 40% | Activity [50]: >40% | inhibition at 100 µM [51]: > 40% | Activity [52]: >40% | inhibition at 100 µM [53]: > 40% | inhibition at 100 µM [54]: 20% | inhibition at 100 µM [55]: > 40% | Activity [56]: >40% | inhibition at 100 µM [57]: > 40% | inhibition at 100 µM [58]: > 40%
